Results taken from publication PMC11404609, “Gut microbiota-mediated C-sulfonate metabolism impairs the bioavailability and anti-cholestatic efficacy of andrographolide” (Gut Microbes, 2024).
Where “and” joins values, the source holds several entries; their conditions need not be identical. Identical values can stand only once. Entries after “also recorded” stand apart in the source; their conditions may differ.

Key:
[1] = Plasma pharmacokinetics of AP after oral administration in rats; format: in vivo; conditions: for AUC(0-t) / Cmax / Tmax / half-life / AUC(0-inf): rat, plasma, po, 120 mg/kg, mean ± SD; for AUC(0-t) / Cmax / Tmax / half-life / AUC(0-inf) / Fr (%) relative oral bioavailability: AP 120 mg/kg oral gavage
Experimental: Control and ABX rats were orally administered a single dose of AP at 120 mg/kg. Blood samples (500 μL) were collected at predetermined time intervals (0, 5, 10, 20, 30, 40, 60, 90, 120, 180, 240, 360, and 480 min). In some cases, APS reductase inhibitor bromocriptine mesylate (20 mg/kg, p.o.) or Na2SO4 (200 mg/kg, p.o.) was given to rats 1 week before AP treatment.
The pharmacokinetic parameters of AP including peak time (Tmax), maximum concentration (Cmax), area under the curve from zero time to the last time point measured (AUC0-t), area under the curve from zero time to infinity (AUC0-∞), and elimination half-life (t1/2) were estimated using DAS 2.0 software (Shanghai, China). The relative oral bioavailability (Fr) of AP was calculated by the following equation: Fr(%)=AUC0−∞of ABX/Inhibitor/SO42−/D.piger/AUC0−∞of Control×100%
An ACQUITY^TM UPLC-MS/MS system equipped with an ACQUITY^TM UPLC BEH C18 Column (50 × 2.1 mm I.D., 1.7 μm, Waters, Milford, MA, USA) was utilized for the quantification of AP and APM as previously described.[47] Briefly, the detection samples (50 μL) were mixed with 50 μL of IS (50 ng/mL). AP and APM were extracted by 400 μL cold methanol. Supernatants were dried under nitrogen stream. Then, the residue was dissolved with 50% methanol in water, centrifuged for 30 min at 13,000 rpm, and 10 µL of the supernatant was subjected to UPLC-MS/MS analysis. The mobile phases consisted of eluent A (water) and eluent B (methanol) with a gradient elution as follows: 0–0.8 min, 10% B; 0.8–1.2 min, 10–90% B; 1.2–5.0 min, 90% B; 5.0–5.5 min, 90–10% B; 5.5–7.0 min, 10% B. The flow rate was 0.3 mL/min and the injection volume of all samples was 10 μL. The quantification of AP, APM and IS was performed by UPLC-MS/MS using an MRM method with the transitions of m/z 349.1→m/z 287.2 for AP, m/z 413.2→m/z 287.2 for APM, m/z 269→m/z 133 for IS.

[2] = tested on: ANIT-induced cholestatic liver injury; test: Anti-cholestatic effect in ANIT-induced cholestatic liver injury (plasma ALT, AST, TBA, TBIL, liver H&E); format: in vivo, mice; conditions: for anti-cholestatic effect: AP 200 mg/kg
Experimental: To investigate the impact of gut microbiota on the anti-cholestatic effect of AP, Control and ABX mice were divided into five groups, respectively: Vehicle, AP (200 mg/kg), ANIT (50 mg/kg), ANIT+AP (200 mg/kg), and ANIT+S-AMe (100 mg/kg).
Similarly, to investigate the impact of C-sulfonate metabolism on the anti-cholestatic effect of AP, mice were randomly divided into two groups: p.o. group (oral administration) and i.p. group (intraperitoneal injection). The p.o. group was further divided into six subgroups: Vehicle, AP (400 mg/kg), ANIT (50 mg/kg), ANIT+AP (100 mg/kg), ANIT+AP (200 mg/kg), ANIT+AP (400 mg/kg). While the i.p. group was divided into five subgroups: Vehicle, AP (200 mg/kg), ANIT (50 mg/kg), ANIT+AP (100 mg/kg), ANIT+AP (200 mg/kg).
Additionally, to investigate the effect of APS reductase inhibitor on the anti-cholestatic effect of AP, mice were randomly divided into Control and Inhibitor groups, each further divided into five subgroups: Vehicle, AP (200 mg/kg), ANIT (50 mg/kg), ANIT+AP (200 mg/kg), and ANIT+S-AMe (100 mg/kg). The mice received APS reductase inhibitor bromocriptine mesylate by oral gavage (20 mg/kg, p.o.) 2 weeks before AP treatment and continued until the end of the experiment. Furthermore, to investigate the important role of FXR in the anti-cholestatic effect of AP, WT and Fxr^-/- mice were, respectively, divided into the following groups: Vehicle, ANIT (50 mg/kg), and ANIT+AP (200 mg/kg).
In pharmacodynamic experiments, mice were administered AP at various dosages through different routes daily for a duration of 2 weeks. Additionally, S-AMe was administered at a dosage of 100 mg/kg via intraperitoneal injection (i.p.) daily for 2 weeks. A single dose of ANIT (50 mg/kg, p.o.) was administered 48 h before euthanizing the mice. At the conclusion of each experiment, the mice were euthanized, and blood samples were collected for biochemical analysis and tissue samples for histological examination and UPLC-MS/MS analysis.
Biochemical indicators of cholestatic liver injury, including alanine aminotransferase (ALT), aspartate aminotransferase (AST), total bile acid (TBA), and total bilirubin (TBIL), were assessed using assay kits obtained from Nanjing JianCheng Bioengineering Institute (Nanjing, China). The experimental procedures were conducted in accordance with the protocols provided by the manufacturer. Fresh liver tissues were fixed in 10% formalin, and prepared as 4-μm paraffin sections. These sections were stained with hematoxylin and eosin for examination of liver histopathology. The stained tissue sections were then observed and captured under an optical microscope for further analysis. Liver histological changes were quantified using a slightly modified scoring system published previously.[45] The scoring system comprised four histological features that were evaluated semi-quantitatively: necrosis and fibrosis (0–4), steatosis (0–3), lobular inflammation (0–2), and hepatocellular ballooning (0–2). The liver necrosis and fibrosis areas were quantified by area fraction analysis (Image J software, V1.8.0, National Institutes of Health, USA).[46]

[3] = SD, rats, Control group (Table 1), n = 4
[4] = Sprague-Dawley (SD), rats, Control group (Table 2), n = 4
[5] = Sprague-Dawley (SD), rats, Inhibitor group (bromocriptine mesylate 20 mg/kg p.o. 1 week before), n = 4
[6] = Sprague-Dawley (SD), rats, SO4^2- group (Na2SO4 200 mg/kg p.o. 1 week before), n = 5
[7] = Sprague-Dawley, rats, Control group (Table 2), n = 4
[8] = Sprague-Dawley, rats, Inhibitor group (bromocriptine mesylate 20 mg/kg p.o. 1 week before), n = 4
[9] = Sprague-Dawley, rats, SO4^2- group (Na2SO4 200 mg/kg p.o. 1 week before), n = 5

SMILES: C=C1CC[C@@H]2[C@](C)(CO)[C@H](O)CC[C@@]2(C)[C@@H]1C/C=C1/C(=O)OC[C@H]1O [AP, Andrographolide]
- enhancement in the relative oral bioavailability of AP ([1]; ABX-treated rats vs Control): 70.11% and 70%
- AUC(0-t) ([1]; SD, rats, ABX group, n = 4): 4430 ng·h/mL
- Cmax ([1]; SD, rats, ABX group, n = 4): 1330 ± 250 ng/mL
- Tmax ([1]; SD, rats, ABX group, n = 4): 0.708 h
- half-life ([1]; SD, rats, ABX group, n = 4): 2.31 ± 0.734 h
- AUC(0-t) [1, 3]: 2360 ng·h/mL
- Cmax [1, 3]: 690 ± 190 ng/mL
- Tmax [1, 3]: 0.833 h
- half-life [1, 3]: 3.07 ± 0.928 h
- AUC(0-inf) [1, 4]: 3690 ng·h/mL
- AUC(0-t) [1, 4]: 3440 ng·h/mL
- AUC(0-inf) [1, 5]: 8020 ng·h/mL
- AUC(0-t) [1, 5]: 7520 ng·h/mL
- AUC(0-inf) [1, 6]: 1870 ng·h/mL
- AUC(0-t) [1, 6]: 1360 ng·h/mL
- half-life [1, 6]: 4.38 ± 3.23 h
- AUC(0-inf) ([1]; Sprague-Dawley, rats, ABX group, n = 4): 5110 ng·h/mL
- AUC(0-inf) ([1]; Sprague-Dawley, rats, Control group (Table 1), n = 4): 3000 ng·h/mL
- Cmax [1, 7]: 1420 ± 710 ng/mL
- Tmax [1, 7]: 0.5 h
- half-life [1, 7]: 2.04 ± 0.397 h
- Cmax [1, 8]: 2750 ± 710 ng/mL
- Tmax [1, 8]: 0.583 h
- half-life [1, 8]: 1.82 ± 0.589 h
- Cmax [1, 9]: 490 ± 190 ng/mL
- Tmax [1, 9]: 0.533 h
- Fr (%) relative oral bioavailability ([1]; rats, ABX group vs Control (AUC0-∞ ratio)): 170.11%
- Fr (%) relative oral bioavailability ([1]; rats, Inhibitor group vs Control (AUC0-∞ ratio)): 217.24%
- Fr (%) relative oral bioavailability ([1]; rats, SO4^2- group vs Control (AUC0-∞ ratio)): 50.70%
- increase in AP bioavailability ([1]; rats, inhibition of APS reductase by bromocriptine mesylate): 117.24% and 117%
- reduction in AP bioavailability ([1]; rats, treatment of Na2SO4): 49.30%
- effect on ANIT-induced elevation of plasma biochemical indicators, liver cell necrosis, inflammatory cell infiltration ([2]; ABX mice (intestinal flora depleted), AP 200 mg/kg p.o., 2 weeks): markedly ameliorated
- protective effect against ANIT-induced liver injury ([2]; Control mice with intact intestinal flora, AP 200 mg/kg p.o., 2 weeks): weak protective effect
- anti-cholestatic effect ([2]; Fxr^-/- mice): completely abolished; also recorded: no protective effect
- anti-cholestatic effect ([2]; WT mice): superior anti-cholestatic effect; also recorded: significant effects
- alleviation of ANIT-induced cholestatic liver injury ([2]; mice, AP 200 mg/kg p.o. alone (inhibitor study)): did not exhibit significant alleviation
- alleviation of ANIT-induced cholestatic liver injury ([2]; mice, AP 200 mg/kg p.o. in combination with APS reductase inhibitor bromocriptine mesylate 20 mg/kg p.o.): notable amelioration of liver injury
- anti-cholestatic effect vs ANIT group ([2]; mice, intraperitoneal AP 100 mg/kg or 200 mg/kg): superior anti-cholestatic effect
- hepatoprotective effect vs ANIT group ([2]; mice, oral AP 400 mg/kg): significant efficacy
